We go through six compounds from ChEMBL document CHEMBL1201862, “PubChem BioAssay data set” (2004).

Activity calls are given as the source filed them.

Assay [1] deals with Type-1 angiotensin II receptor (Homo sapiens, UniProt P30556). Description: AT1 receptor agonists, dose response, selectivity assay for APJ receptor agonist project, cell-based, uHTS hits (AID 488865).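 Further: beta-arrestin recruitment to AT1 measured by enzyme fragment complementation luminescence.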 The assay is classed as functional.
In assay [2] the target is T1, Runt-related transcription factor 1/Core-binding factor subunit beta (Homo sapiens, UniProt Q01196+Q13951). The assay can be described thus: inhibitors of RUNX1 Runt–CBFb-SMMHC binding, primary screen, biochemical, FRET, Cerulean-Runt, Venus-CBFb-SMMHC, uHTS (AID 1434).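 Further: partner is the CBFb-SMMHC leukemia fusion protein rather than wild-type CBFb.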 The assay is classed as protein assay.
T1 sequence (Q01196 whole entry, the tested form may be a part): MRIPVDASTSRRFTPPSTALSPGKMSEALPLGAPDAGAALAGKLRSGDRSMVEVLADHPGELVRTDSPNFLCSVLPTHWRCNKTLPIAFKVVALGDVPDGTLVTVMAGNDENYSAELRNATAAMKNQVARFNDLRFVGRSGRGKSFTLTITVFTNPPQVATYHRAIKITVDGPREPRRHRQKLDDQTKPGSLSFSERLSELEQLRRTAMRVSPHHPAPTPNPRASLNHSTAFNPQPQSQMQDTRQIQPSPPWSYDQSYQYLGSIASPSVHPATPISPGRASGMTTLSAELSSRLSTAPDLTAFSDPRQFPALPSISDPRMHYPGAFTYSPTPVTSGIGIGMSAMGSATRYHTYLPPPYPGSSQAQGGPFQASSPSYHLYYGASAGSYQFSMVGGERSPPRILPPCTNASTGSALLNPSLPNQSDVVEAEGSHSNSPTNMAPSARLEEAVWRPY
T1 sequence (Q13951 whole entry, the tested form may be a part): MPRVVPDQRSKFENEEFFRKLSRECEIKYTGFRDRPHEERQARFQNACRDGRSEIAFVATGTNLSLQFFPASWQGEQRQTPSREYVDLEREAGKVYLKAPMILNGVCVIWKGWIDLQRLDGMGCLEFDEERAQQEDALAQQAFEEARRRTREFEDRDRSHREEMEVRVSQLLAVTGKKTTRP
The target in assay [3] is T2, Voltage-gated N-type calcium channel alpha-1B subunit/Amyloid beta A4 precursor protein-binding family A member 1 (Homo sapiens, UniProt Q00975+Q02410). The assay is classed as protein assay.
T2 sequence (Q00975 whole entry): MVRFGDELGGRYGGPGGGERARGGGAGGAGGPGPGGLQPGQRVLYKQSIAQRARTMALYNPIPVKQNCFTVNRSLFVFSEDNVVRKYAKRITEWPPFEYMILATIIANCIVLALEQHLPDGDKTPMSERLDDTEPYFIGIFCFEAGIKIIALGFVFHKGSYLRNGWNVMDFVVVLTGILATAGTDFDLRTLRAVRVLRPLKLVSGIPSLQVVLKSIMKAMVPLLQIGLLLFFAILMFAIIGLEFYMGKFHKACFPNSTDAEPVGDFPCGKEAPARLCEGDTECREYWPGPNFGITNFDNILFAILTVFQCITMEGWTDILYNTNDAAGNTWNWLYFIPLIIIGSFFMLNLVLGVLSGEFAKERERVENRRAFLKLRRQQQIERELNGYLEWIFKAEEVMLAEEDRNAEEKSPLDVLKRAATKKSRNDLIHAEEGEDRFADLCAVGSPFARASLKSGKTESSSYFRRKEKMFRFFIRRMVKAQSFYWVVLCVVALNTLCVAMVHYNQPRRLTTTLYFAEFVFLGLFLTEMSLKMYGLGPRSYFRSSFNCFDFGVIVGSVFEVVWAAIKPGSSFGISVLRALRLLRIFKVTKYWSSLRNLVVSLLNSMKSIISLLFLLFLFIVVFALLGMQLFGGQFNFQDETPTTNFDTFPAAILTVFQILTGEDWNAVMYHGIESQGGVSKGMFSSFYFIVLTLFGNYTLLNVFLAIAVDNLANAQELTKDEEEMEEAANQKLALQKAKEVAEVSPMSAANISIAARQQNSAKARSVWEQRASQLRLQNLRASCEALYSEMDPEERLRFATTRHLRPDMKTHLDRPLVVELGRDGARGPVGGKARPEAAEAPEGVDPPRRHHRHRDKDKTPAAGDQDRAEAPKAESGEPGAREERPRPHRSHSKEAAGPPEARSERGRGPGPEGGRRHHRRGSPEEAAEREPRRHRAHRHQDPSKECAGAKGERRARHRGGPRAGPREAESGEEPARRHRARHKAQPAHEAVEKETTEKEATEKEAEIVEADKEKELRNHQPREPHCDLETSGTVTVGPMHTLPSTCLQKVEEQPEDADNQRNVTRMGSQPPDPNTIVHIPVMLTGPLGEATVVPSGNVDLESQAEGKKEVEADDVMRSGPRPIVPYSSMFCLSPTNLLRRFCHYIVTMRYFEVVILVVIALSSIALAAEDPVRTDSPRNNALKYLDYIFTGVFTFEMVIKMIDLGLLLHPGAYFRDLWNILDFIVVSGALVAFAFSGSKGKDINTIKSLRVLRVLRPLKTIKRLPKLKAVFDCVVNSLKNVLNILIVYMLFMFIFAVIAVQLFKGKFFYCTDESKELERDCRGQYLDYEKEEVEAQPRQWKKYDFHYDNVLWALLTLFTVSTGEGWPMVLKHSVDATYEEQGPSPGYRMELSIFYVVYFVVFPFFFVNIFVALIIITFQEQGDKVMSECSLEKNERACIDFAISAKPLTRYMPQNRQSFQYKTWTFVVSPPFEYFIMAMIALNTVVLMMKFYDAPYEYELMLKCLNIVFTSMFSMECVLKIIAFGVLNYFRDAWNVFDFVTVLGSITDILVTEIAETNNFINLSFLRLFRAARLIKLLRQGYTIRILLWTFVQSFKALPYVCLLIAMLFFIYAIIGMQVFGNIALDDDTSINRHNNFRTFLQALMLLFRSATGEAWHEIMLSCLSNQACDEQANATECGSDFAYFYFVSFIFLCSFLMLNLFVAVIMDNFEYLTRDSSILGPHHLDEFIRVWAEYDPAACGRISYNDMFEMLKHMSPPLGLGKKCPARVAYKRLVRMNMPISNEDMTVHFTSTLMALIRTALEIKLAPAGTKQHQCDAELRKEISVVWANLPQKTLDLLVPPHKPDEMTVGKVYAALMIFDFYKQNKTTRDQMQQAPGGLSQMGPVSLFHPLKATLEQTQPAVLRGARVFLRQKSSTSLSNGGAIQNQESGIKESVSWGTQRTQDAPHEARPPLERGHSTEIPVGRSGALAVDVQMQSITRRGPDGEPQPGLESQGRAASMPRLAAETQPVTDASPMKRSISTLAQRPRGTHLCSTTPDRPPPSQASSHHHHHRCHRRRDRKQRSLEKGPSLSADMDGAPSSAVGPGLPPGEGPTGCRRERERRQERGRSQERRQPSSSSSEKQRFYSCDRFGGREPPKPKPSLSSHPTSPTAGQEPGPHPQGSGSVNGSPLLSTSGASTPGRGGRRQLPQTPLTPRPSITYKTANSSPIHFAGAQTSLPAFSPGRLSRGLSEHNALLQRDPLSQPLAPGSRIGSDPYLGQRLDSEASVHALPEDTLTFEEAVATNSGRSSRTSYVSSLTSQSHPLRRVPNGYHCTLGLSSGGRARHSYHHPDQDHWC
T2 sequence (Q02410 whole entry): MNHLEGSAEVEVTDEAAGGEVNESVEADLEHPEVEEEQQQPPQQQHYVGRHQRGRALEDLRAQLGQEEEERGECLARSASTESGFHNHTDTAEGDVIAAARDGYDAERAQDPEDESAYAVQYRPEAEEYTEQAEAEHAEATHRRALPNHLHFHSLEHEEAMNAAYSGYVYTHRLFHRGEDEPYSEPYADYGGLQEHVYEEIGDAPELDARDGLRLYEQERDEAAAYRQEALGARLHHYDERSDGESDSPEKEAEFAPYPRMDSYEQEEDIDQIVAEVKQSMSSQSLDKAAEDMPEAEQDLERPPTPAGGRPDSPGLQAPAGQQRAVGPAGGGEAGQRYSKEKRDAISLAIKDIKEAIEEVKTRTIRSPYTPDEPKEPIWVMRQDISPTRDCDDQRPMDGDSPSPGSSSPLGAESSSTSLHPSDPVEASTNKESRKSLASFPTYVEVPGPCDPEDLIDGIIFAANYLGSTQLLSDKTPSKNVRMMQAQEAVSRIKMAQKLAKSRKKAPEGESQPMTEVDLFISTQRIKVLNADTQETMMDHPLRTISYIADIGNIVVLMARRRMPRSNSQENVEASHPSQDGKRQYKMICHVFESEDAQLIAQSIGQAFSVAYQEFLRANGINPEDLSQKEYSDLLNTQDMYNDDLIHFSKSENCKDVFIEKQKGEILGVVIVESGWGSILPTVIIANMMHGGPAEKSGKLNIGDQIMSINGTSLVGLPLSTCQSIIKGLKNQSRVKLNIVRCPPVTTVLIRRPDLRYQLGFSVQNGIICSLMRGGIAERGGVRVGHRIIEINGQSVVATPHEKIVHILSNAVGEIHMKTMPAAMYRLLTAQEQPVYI
Assay [4] has as its target T1, Runt-related transcription factor 1/Core-binding factor subunit beta. Description: inhibitors of RUNX1 Runt–CBFb-SMMHC binding, biochemical, TR-FRET (AID 1438). The assay is classed as protein assay.
Assay [5] addresses T2, Voltage-gated N-type calcium channel alpha-1B subunit/Amyloid beta A4 precursor protein-binding family A member 1. The assay is classed as protein assay. This is another data set of the same source.
Assay [6] deals with T3, Mannose-6-phosphate isomerase (Homo sapiens, UniProt P34949).
T3 sequence (P34949 whole entry): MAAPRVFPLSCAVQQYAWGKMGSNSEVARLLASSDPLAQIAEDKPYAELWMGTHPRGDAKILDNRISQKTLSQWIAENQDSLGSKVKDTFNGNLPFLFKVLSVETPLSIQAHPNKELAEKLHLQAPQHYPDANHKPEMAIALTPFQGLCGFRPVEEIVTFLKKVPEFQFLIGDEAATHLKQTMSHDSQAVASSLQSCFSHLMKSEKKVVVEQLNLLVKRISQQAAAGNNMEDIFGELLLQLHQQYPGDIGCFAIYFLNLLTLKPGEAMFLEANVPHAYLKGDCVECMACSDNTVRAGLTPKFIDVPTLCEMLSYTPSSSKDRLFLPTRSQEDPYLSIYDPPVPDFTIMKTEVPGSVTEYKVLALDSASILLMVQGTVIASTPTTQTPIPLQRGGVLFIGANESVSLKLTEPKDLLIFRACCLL
Description: human PMI inhibitors, high substrate, primary screen, biochemical, fluorescence intensity, high mannose 6-phosphate (AID 1220).

The target of assay [7] is T3, Mannose-6-phosphate isomerase. The assay can be described thus: PMI enzyme inhibitors, confirmation, biochemical, fluorescence intensity (AID 1535).
Assay [8] deals with DNA dC->dU-editing enzyme APOBEC-3A (Homo sapiens, UniProt P31941). Description: APOBEC3A DNA deaminase inhibitors, dose response, biochemical (AID 504722). The assay is classed as functional.
Assay [9] concerns the target Glucose-6-phosphate 1-dehydrogenase (Homo sapiens, UniProt P11413). Description: human G6PD enzyme inhibitors, dose response, selectivity assay for P. falciparum G6PD inhibitor project, biochemical, fluorescence (AID 504792). The assay is classed as functional.
The next assay deals with T4, Phosphomannomutase 2 (Homo sapiens, UniProt O15305).
T4 sequence (O15305 whole entry): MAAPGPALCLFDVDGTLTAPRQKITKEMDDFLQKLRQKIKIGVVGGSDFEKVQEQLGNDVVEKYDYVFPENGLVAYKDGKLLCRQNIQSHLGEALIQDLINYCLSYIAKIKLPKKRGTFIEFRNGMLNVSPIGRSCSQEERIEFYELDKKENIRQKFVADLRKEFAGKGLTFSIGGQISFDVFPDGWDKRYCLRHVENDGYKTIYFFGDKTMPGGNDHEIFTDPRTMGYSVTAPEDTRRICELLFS
Description: Counter screen SAR assay for PMM2 inhibitors via a fluorescence intensity assay. [Related pubchem assays (depositor defined):AID1545, AID1574].

Assay [10] has as its target DNA dC->dU-editing enzyme APOBEC-3G (Homo sapiens, UniProt Q9HC16). The assay can be described thus: Dose Response confirmation of small molecule APOBEC3G DNA Deaminase Inhibitors via a fluorescence-based single-stranded DNA deaminase assay. [Related pubchem assays (depositor defined):AID493012, AID493028]. The assay is classed as functional.
The target in assay [11] is DNA damage-inducible transcript 3 protein (Mus musculus, UniProt P35639). The assay is classed as functional, Cricetulus griseus.
The next assay deals with Ion channel NompC (Danio rerio, UniProt Q7T1G6). Description: Dose response cell-based high-throughput screening assay for agonists of the transient receptor potential channel N1 (TRPN1). [Related pubchem assays (depositor defined):AID1424, AID1448]. The assay is classed as functional.
Assay [12] can be described thus: growth suppression of PTEN-null colon cells, dose response, cell-based, HCT116 PTEN knockout (AID 1047).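 Further: HCT116 colon tumor cells with PTEN knocked out; cells exposed to compound for 60 hours before readout; potency for loss of cell viability measured by luminescence.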 The assay is classed as functional.
The target in another assay is Mucolipin-3 (Homo sapiens, UniProt Q8TDD5). Description: Fluorescence counterscreen assay for […] agonists: dose response cell-based high-throughput screening assay to identify agonists of the transient receptor potential channel ML3 (TRPML3). [Related pubchem assays: 1424, 1448 ]. The assay is classed as functional.
Sequence of Mucolipin-3 (Q8TDD5 whole entry): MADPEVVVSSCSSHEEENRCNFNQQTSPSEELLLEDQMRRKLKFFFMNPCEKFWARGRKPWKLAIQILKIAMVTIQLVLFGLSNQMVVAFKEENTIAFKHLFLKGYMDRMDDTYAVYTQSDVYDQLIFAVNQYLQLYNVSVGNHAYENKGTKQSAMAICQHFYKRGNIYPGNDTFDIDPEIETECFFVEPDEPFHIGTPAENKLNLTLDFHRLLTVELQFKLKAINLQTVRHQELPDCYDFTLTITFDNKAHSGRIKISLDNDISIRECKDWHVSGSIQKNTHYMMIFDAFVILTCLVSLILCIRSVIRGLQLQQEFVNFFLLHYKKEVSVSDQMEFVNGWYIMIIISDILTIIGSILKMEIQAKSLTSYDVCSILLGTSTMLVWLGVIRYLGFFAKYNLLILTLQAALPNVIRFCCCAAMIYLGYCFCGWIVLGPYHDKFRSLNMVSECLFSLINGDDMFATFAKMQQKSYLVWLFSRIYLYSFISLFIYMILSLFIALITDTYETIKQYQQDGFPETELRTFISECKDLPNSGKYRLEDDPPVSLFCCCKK
A short description of assay [13]: growth suppression of beta-catenin-knockout colon cells, dose response, cell-based, HCT116, human colon tumor (AID 1045).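 Further: HCT116 colon tumor cells with beta catenin knocked out; cells exposed to compound for 60 hours.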 The assay is classed as functional.
The test system of another assay is HEK293. Description: inhibitors of LMP1-driven NF-kB reporter, dose response, cell-based, HEK293, luciferase, cherry-pick (AID 588343). The settings on record: Homo sapiens. The assay is classed as functional.
Assay [14] has as its target T5, High affinity choline transporter 1 (Homo sapiens, UniProt Q9GZV3).
T5 sequence (Q9GZV3 whole entry): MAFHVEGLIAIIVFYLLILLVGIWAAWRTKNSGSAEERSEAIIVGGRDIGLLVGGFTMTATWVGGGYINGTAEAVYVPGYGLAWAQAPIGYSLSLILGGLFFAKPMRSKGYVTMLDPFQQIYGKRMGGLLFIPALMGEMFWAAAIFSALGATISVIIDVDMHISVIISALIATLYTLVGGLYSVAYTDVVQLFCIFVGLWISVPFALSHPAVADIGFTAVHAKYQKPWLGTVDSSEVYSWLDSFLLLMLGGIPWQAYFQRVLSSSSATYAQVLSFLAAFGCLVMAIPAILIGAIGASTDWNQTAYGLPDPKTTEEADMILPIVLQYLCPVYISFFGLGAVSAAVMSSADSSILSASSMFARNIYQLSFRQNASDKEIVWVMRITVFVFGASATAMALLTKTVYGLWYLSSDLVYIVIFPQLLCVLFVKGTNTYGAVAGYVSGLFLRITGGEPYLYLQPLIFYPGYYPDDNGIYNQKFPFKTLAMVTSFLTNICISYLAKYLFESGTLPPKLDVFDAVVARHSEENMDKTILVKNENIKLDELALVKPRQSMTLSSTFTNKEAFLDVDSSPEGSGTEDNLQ
The assay can be described thus: CHT inhibitors, dose response, cell-based, 5-point CRC, membrane potential dye (AID 504840). The assay is classed as functional.

The target in assay [15] is Tyrosine-protein phosphatase non-receptor type 12 (Homo sapiens, UniProt Q05209). Description: SAR Selectivity Analysis of small molecule inhibitors of PEST using pCAP in a fluorescence assay. [Related pubchem assays (depositor defined):AID1779, AID1784, AID2135]. The assay is classed as functional.
The target in assay [16] is T6, Dual specificity protein phosphatase 3 (Homo sapiens, UniProt P51452). Description: SAR VHR1 absorbance Assay for In Vitro dose response studies. [Related pubchem assays (depositor defined):AID1654, AID1661, AID1878, AID1992, AID2004].
T6 sequence (P51452 whole entry): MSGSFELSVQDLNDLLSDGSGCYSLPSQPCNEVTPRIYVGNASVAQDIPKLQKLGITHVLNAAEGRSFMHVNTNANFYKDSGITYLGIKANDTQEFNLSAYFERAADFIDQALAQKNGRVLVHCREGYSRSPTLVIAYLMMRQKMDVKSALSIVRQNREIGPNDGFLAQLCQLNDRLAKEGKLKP
For assay [17], the target named is T6, Dual specificity protein phosphatase 3. Description: SAR VHR1 Fluorescent Assay for In Vitro dose response studies. [Related pubchem assays (depositor defined):AID1654, AID1661, AID1878, AID1992, AID2004, AID2070, AID2085]. The assay is classed as functional.
In assay [18] the target is T7, Tyrosine-protein phosphatase non-receptor type 22 (Homo sapiens, UniProt Q9Y2R2).
T7 sequence (Q9Y2R2 whole entry): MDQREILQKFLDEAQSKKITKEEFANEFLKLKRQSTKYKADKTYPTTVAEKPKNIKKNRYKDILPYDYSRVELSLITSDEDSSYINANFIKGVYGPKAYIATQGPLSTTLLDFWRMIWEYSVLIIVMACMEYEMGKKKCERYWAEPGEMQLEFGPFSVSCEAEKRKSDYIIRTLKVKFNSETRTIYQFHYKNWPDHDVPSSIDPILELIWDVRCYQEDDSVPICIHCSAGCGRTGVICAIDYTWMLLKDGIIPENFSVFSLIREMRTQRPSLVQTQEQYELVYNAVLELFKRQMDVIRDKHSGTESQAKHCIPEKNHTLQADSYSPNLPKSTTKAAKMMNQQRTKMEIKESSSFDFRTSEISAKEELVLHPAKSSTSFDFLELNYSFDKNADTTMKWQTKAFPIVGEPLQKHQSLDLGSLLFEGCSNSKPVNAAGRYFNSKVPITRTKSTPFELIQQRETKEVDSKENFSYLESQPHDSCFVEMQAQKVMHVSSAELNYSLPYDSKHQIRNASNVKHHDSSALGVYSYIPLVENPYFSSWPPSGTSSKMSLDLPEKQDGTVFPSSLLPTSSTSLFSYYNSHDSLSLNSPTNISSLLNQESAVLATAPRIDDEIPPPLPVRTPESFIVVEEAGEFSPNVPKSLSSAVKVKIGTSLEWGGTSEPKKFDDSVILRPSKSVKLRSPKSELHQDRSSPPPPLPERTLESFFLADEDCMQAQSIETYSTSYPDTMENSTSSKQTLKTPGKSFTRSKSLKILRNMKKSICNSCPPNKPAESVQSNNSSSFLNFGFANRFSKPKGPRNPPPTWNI
Description: SAR LYP1 Fluorescent Assay using OMFP substrate for In Vitro dose response studies - Set 3. [Related pubchem assays (depositor defined):AID1779, AID1784, AID2140, AID2686]. The assay is classed as functional.

For assay [19], the target named is T8, Tyrosine-protein phosphatase non-receptor type 7 (Homo sapiens, UniProt P35236).
T8 sequence (P35236 whole entry): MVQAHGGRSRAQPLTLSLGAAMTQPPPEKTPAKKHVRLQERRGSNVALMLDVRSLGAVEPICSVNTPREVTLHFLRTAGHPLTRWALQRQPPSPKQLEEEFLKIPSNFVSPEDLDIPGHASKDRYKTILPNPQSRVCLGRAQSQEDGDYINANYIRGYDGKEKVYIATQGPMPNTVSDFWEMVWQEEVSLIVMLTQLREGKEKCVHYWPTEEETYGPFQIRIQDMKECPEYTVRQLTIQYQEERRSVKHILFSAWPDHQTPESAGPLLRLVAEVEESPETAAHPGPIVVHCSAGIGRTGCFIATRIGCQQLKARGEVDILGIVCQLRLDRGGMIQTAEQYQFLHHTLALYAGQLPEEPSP
Description: redox-dependent HePTP inhibition, mechanism study, biochemical, fluorescence (AID 2068). The assay is classed as functional.

Assay [20] deals with T7, Tyrosine-protein phosphatase non-receptor type 22. Description: LYP (PTPN22) phosphatase inhibitor potency, SAR follow-up, biochemical, pCAP fluorogenic substrate, fluorescence, set 3 (AID 449727). The assay is classed as functional.
For assay [21], the target named is T9, Dual specificity protein phosphatase 6 (Rattus norvegicus, UniProt Q64346).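 Further: confirmatory in vitro dose-response testing of MKP-3 inhibition; recombinant His-tagged MKP-3 made in E. coli BL21 with OMFP substrate.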
T9 sequence (Q64346 whole entry): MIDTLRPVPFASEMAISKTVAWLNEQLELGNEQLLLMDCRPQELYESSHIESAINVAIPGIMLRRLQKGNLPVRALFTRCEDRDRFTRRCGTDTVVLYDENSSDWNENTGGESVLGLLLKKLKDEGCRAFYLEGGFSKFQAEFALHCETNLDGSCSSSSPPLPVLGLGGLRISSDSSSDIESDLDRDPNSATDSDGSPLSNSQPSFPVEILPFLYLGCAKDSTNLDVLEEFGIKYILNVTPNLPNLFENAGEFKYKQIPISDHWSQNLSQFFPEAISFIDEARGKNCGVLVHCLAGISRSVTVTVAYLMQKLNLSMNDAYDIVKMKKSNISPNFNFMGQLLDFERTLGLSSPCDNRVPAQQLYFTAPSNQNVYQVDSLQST
The assay is classed as functional.

Assay [22] in a line: A small molecule screen for inhibitors of the PhoP region in Salmonella typhi (4) using purified and synthesized compounds. [Related pubchem assays (depositor defined):AID1850, AID1864, AID1985, AID2252, AID2384, AID2612, AID2811, AID434995]. The assay is classed as functional.

Sequence of DNA dC->dU-editing enzyme APOBEC-3G (Q9HC16 whole entry): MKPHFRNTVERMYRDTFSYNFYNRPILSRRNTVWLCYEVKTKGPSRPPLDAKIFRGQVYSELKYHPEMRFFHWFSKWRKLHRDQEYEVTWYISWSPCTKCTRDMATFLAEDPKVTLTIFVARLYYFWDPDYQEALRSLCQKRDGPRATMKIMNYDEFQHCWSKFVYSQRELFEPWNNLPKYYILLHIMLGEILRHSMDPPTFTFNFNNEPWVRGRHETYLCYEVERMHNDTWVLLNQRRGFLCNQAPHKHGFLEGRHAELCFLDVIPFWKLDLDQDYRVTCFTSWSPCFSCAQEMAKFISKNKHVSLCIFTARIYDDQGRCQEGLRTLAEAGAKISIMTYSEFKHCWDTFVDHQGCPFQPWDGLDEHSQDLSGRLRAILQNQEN

Regarding `CCOC(=O)C1=C(Cn2cnc3ccccc32)NC(=O)NC1c1cc(C)ccc1C` (stereo unspecified), in [1], the EC50 is > 100 µM (inactive).
For `CCOC(=O)Cc1csc(-n2sc3ccccc3c2=O)n1`, the IC50 in assay [2] was 5.4 µM (active); in assay [3], 1.15 µM (active); in [4] it was 8.58 µM (active); in assay [5], > 50 µM (inactive); in assay [6] it was 23.5 µM (active); in [7] it was > 50 µM (inactive). The IC50 is > 100 µM (inactive) in [8], 21.6 µM (inactive) in assay [9], > 100 µM (inactive) on Phosphomannomutase 2 and 12.6 µM (active) in [10].
On to `Cc1nc(SCC(=O)Nc2ccc(C)c(F)c2)c2oc3ccccc3c2n1`, for which the “Absolute IC50 (CHOP)” value in assay [11] was found to be 10 µM.
For the compound `CCCCN=C(S)Nc1ccc([N+](=O)[O-])cc1`, the EC50 was > 29.9 µM (inactive) at Ion channel NompC, 19.6 µM (active) in [12], > 29.9 µM (not active) on Mucolipin-3 and 20.7 µM (active) in [13]. Also, the concentration at half-maximal activity (AC50) with HEK293 was 105 µM (active). In addition, the IC50 in assay [14] was 12 µM (active).
For the compound `O=C(COc1c(Cl)cccc1Cl)Oc1ccc([N+](=O)[O-])cc1`, the IC50 in assay [15] was 42.5 µM (active); in assay [16] it was > 100 µM (inactive); in assay [17] it was > 99 µM (inactive); in assay [18] it was > 100 µM (inactive); in assay [19], 15.1 µM (active); in [20] it was 63.7 µM (active). Also, the IC50 in [21] was > 99 µM (inactive).
`COc1cccc(CNC(=S)Nc2ccncc2)c1`: the half-maximal inhibitory concentration (IC50) in assay [22] was 164 µM (active).
